Tests used:
Format in all cases: functional
Mus musculus [1] = experiment: Narcotic antagonist activity in mouse assessed as inhibition of oxymorphone-induced straub tail response at 2.5 mg/kg, sc administered 10 mins post oxymorphone-challenge relative to control; conditions: route subcutaneous
Mus musculus [2] = experiment: Narcotic antagonist activity in mouse assessed as inhibition of oxymorphone-induced straub tail response at 5 mg/kg, sc administered 10 mins post oxymorphone-challenge relative to control; conditions: route subcutaneous
Mus musculus [3] = experiment: Analgesic activity in sc dosed mouse assessed as reduction in phenylquinone-induced writhing administered 15 mins prior to phenylquinone-challenge measured up to 10 mins
Mus musculus [4] = experiment: Analgesic activity in mouse assessed as reduction in phenylquinone-induced writhing at 40 mg/kg, sc administered 15 mins prior to phenylquinone-challenge measured up to 10 mins relative to control; set-up: scale not given: the % may be the effect or the level left; conditions: route subcutaneous
Mus musculus [5] = experiment: Analgesic activity in mouse assessed as reduction in phenylquinone-induced writhing at 20 mg/kg, sc administered 15 mins prior to phenylquinone-challenge measured up to 10 mins relative to control; set-up: scale not given: the % may be the effect or the level left; conditions: route subcutaneous
Mus musculus [6] = experiment: Narcotic antagonist activity in sc dosed mouse assessed as inhibition of oxymorphone-induced straub tail response administered 10 mins post oxymorphone-challenge
Mus musculus [7] = experiment: Analgesic activity in mouse assessed as reduction in phenylquinone-induced writhing at 10 mg/kg, sc administered 15 mins prior to phenylquinone-challenge measured up to 10 mins relative to control; set-up: scale not given: the % may be the effect or the level left; conditions: route subcutaneous
Rattus norvegicus [8] = experiment: Analgesic activity in sc dosed rat assessed as reduction in phenylquinone-induced writhing administered 15 mins prior to phenylquinone-challenge measured up to 10 mins
Rattus norvegicus [9] = experiment: Narcotic antagonist activity in sc dosed rat assessed as reversal of morphine-induced analgesia by tail-flick test
Rattus norvegicus [10] = experiment: Narcotic antagonist activity in sc dosed rat assessed as reversal of oxymorphone-induced loss of righting reflex
Mus musculus [11] = experiment: Analgesic activity in po dosed mouse assessed as increase in response time by hot plate test relative to control
Mus musculus [12] = experiment: Analgesic activity in po dosed mouse by hot plate test
[13] = Mus musculus, sc, read-out: ED50
[14] = Mus musculus, sc, 10 min, read-out: ED50

Structure (SMILES): CC1C[C@]23CCN(C4CCC4)[C@H](Cc4ccc(O)cc42)[C@@]3(C)O1 (stereo partly drawn)
- ED50 (Mus musculus [1]): 33 mg/kg
- ED50 (Mus musculus [2]): 100 mg/kg
- ED50 (Mus musculus [3]; [13]): 40 mg/kg
- Activity (Mus musculus [4]): 50%
- Activity (Mus musculus [5]): 33%
- ED50 (Mus musculus [6]; [14]): 3 mg/kg

Structure (SMILES): CC1C[C@]23CCN(C)[C@H](Cc4ccc(O)cc42)[C@@]3(C)O1 (stereo partly drawn)
- ED50 (Mus musculus [3]; [13]): 18 mg/kg
- Activity (Mus musculus [5]): 65%
- Activity (Mus musculus [7]): 5%
- ED50 (Mus musculus [6]; [14]): > 40 mg/kg

Structure (SMILES): CC1C[C@]23CCN(C)[C@H](Cc4ccc(O)cc42)[C@H]3O1 (stereo partly drawn)
- ED50 (Mus musculus [3]; [13]): 19 mg/kg
- Activity (Mus musculus [5]): 63%
- Activity (Mus musculus [7]): 0%
- ED50 (Mus musculus [6]; [14]): > 40 mg/kg

Structure (SMILES): CC1C[C@]23CCN(C4CC4)[C@H](Cc4ccc(O)cc42)[C@@]3(C)O1 (stereo partly drawn)
- ED50 (Mus musculus [3]; [13]): > 40 mg/kg
- ED50 (Mus musculus [6]; [14]): 0.63 mg/kg

Structure (SMILES): CCC[C@]12CCN(CC3CC3)[C@H](Cc3ccc(O)cc31)[C@H]2O
- ED50 (Mus musculus [3]; [13]): 0.07 mg/kg
- ED50 (Mus musculus [6]; [14]): 0.62 mg/kg

Structure (SMILES): C=CC[C@]12CCN(CC3CCC3)[C@H](Cc3ccc(O)cc31)[C@@]2(C)O.O=C(O)C(O)C(O)C(=O)O (stereo in doubt; (-)-23b)
- ED50 (Rattus norvegicus [8]): 0.01 mg/kg
- ED50 (Mus musculus [3]): 0.06 mg/kg
- ED50 (Rattus norvegicus [9]): 0.08 mg/kg
- ED50 (Rattus norvegicus [10]): 0.05 mg/kg
- ED50 (Mus musculus [6]): 0.43 mg/kg

Structure (SMILES): Oc1ccc2c(c1)[C@@]13CCCC[C@@]1(O)[C@@H](C2)N(CC1CC1)CC3 [OXILORPHAN]
- ED50 (Rattus norvegicus [8]): 8 mg/kg
- ED50 (Mus musculus [3]; [13]): 13 mg/kg
- ED50 (Rattus norvegicus [9]): 0.012 mg/kg
- ED50 (Rattus norvegicus [10]): 0.03 mg/kg
- ED50 (Mus musculus [6]; [14]): 0.19 mg/kg

Structure (SMILES): CC1C[C@]23CCN(C)[C@H](Cc4ccccc42)[C@@]3(C)O1.Cl (stereo partly drawn)
- %max (Mus musculus [11]): 16%
- ED50 (Mus musculus [12]): 16 mg/kg
- ED50 (Mus musculus [6]; [14]): > 40 mg/kg

Structure (SMILES): C=CC[C@]12CCN(CC3CC3)[C@H](Cc3ccc(O)cc31)[C@H]2O
- ED50 (Mus musculus [6]; [14]): 0.5 mg/kg

Structure (SMILES): C=CC[C@]12CCN(CC3CCC3)[C@H](Cc3ccc(O)cc31)[C@@]2(C)O.O=C(O)C(O)C(O)C(=O)O (stereo in doubt; (+)-23b)
- ED50 (Mus musculus [3]): >40 mg/kg
- ED50 (Mus musculus [6]): >40 mg/kg

Structure (SMILES): CC1C[C@]23CCN(C)[C@H](Cc4ccccc42)[C@H]3O1 (stereo partly drawn)
- %max (Mus musculus [11]): 16%
- ED50 (Mus musculus [12]): 30 mg/kg
- ED50 (Mus musculus [6]; [14]): > 40 mg/kg

Structure (SMILES): C=CC[C@]12CCN(CC3CC3)[C@H](Cc3ccc(O)cc31)[C@@]2(C)O
- ED50 (Mus musculus [3]; [13]): 45 mg/kg

Structure (SMILES): Oc1ccc2c(c1)[C@@]13CCCC[C@@]1(O)[C@@H](C2)N(CC1CCC1)CC3 [BUTORPHANOL]
- ED50 (Rattus norvegicus [8]): 0.04 mg/kg
- ED50 (Mus musculus [3]; [13]): 0.05 mg/kg
- ED50 (Rattus norvegicus [9]): 0.43 mg/kg
- ED50 (Rattus norvegicus [10]): 0.27 mg/kg
- ED50 (Mus musculus [6]; [14]): 0.98 mg/kg

Source: ChEMBL document CHEMBL3244082, “5-allyl-9-oxobenzomorphans. 3. Potent narcotic antagonists and analgesics-antagonists in the series of substituted 2',9beta-dihydroxy-6,7-benzomorphans” (1977)
